In patent US20220370473A1, “USE OF A BENZODIAZEPINE DERIVATIVE AND METHOD OF TREATMENT OF TRAUMATIC BRAIN INJURY” (CENTRO DE INVESTIGACION Y […] MEDICAMENTOS (CIDEM), priority 2019, published 2022):

Tests used:
Format in all cases: in vivo, Male Wistar rats
GFAP = test: Western blotting of GFAP in brain tissue; conditions: cortex and hippocampus; all groups; FIGS. 11 and 12
Experimental: (§1) Male Wistar rats (200-250 g), with an average age of 60 days were used, conditioned in boxes with food and water at will. Procedures were performed pursuant to the rules of the Animal Ethics and Welfare Committee UFSM (9426190418).
(§2) TBI was induced through the weight-drop model (MANNIX, R. et al. Chronic Gliosis and Behavioral Deficits in Mice Following Repetitive Mild Traumatic Brain Injury. Journal of Neurosurgery. 2014) A 54 g weight was used released from a 100 cm height freely falling on the animals head. […]
(§3) The Western blot test was performed according to Gerbatin et al (2017) with some adjustments (GERBATIN, R. D. R. et al. Guanosine Protects Against Traumatic Brain Injury-Induced Functional Impairments and Neuronal Loss by Modulating Excitotoxicity, Mitochondrial Dysfunction, and Inflammation. Molecular Neurobiology. 54(10):7585-7596. 2017.). […] The protein concentration of each sample was determined by the bicinchonininc acid protein assay (Thermo Fisher Scientific). […]
(§4) The mouse anti-β-actin antibody (1: 10,000, Santa Cruz Biotechnology, Santa Cruz, Calif., EE. UU.) was dyed as an additional control to the protein load. […] Then the bands were quantified using the Image Lab software (Bio-Rad).

TBI = test: Overall assessment in animal models after a TBI; conditions: motor performance; cerebral edema; astrocyte reactivity; microglial activation; pro-survival pathway activation
Experimental: as §1
(§5) TBI was induced through the weight-drop model (MANNIX, R. et al. Chronic Gliosis and Behavioral Deficits in Mice Following Repetitive Mild Traumatic Brain Injury. Journal of Neurosurgery. 2014) A 54 g weight was used released from a 100 cm height freely falling on the animals head. Animals were suspended on aluminum foil, with small cuts to ensure it would break with the impact of the weight allowing for the sudden acceleration of the movement, thus tearing the aluminum foil and falling over a sponge. TBI-induced animals were previously anesthetized with 2% isoflurane. In addition, topical lidocaine was applied to the animals' head to minimize posttraumatic pain (MYCHASIUK, R. et al. A Novel Model of Mild Traumatic Brain Injury for Juvenile Rats. Journal of Visualized Experiments. 2014)

TBI-induced rats [1] = test: Rotarod test after weight-drop TBI; conditions: TBI group vs control, JM-20 and TBI+JM-20 groups, p<0.05; FIG. 1
Experimental: as §1, §5
Animals were trained for 5 minutes before the TBI so they could adapt to the apparatus. The testing session comprised 5 trials and concluded when animals fell off the rotor (3.7 cm diameter, velocity 25-30 rpm) or after the cutoff time, i.e. 300 s. (Whishaw et al., 2003). The first fall latency was analyzed.

TBI-induced rats [2] = test: Beam-walking test after weight-drop TBI; conditions: TBI group vs control and JM-20 (alone) groups, p<0.05; FIG. 5
Experimental: as §1
(§6) TBI was induced through the weight-drop model (MANNIX, R. et al. Chronic Gliosis and Behavioral Deficits in Mice Following Repetitive Mild Traumatic Brain Injury. Journal of Neurosurgery. 2014) A 54 g weight was used released from a 100 cm height freely falling on the animals head. Animals were suspended on aluminum foil, with small cuts to ensure it would break with the impact of the weight allowing for the sudden acceleration of the movement, thus tearing the aluminum foil and falling over a sponge. TBI-induced animals were previously anesthetized with 2% isoflurane. […]
The beam-walking test (HAUSSER, N. et al. Detecting Behavioral Deficits in Rats After Traumatic Brain Injury. J. Vis. Exp. (131), e56044, doi:10.3791/56044. 2018.) consists in animals walking on a hanging wooden beam (2.5 cm wide and 100 cm long) to reach a black wooden box placed at the end of the apparatus. […] Three attempts were analyzed. […] The day of the test, the times of each attempt were recorded and their values were averaged.

iba-1 = test: Western blotting of iba-1 in brain tissue; conditions: TBI group vs control, JM-20 and TBI+JM-20, p<0.01, FIG. 9
Experimental: as §1, §2, §3, §4

TBI-induced rats [3] = test: Cerebral edema (brain water content, wet-dry method); conditions: 24 h after TBI; TBI group vs control and TBI+JM-20 groups, p<0.05; FIG. 6
Experimental: as §1, §6
The cerebral edema was determined measuring the water content of the brain using the wet-dry method described by Chen et al (2014) (CHEN, W. et al. Neuroprotective effect of allicin against traumatic brain injury via Akt/endothelial nitric oxide synthase pathway-mediated anti-inflammatory and anti-oxidative activities. Neurochemistry International. 68:28-37. 2014) Twenty-four hours after the TBI, the animals were sacrificed and their brains were rapidly removed and weighed to determine their wet weight. […] The water content of the brain was calculated using the following formula: […]

p-Akt = test: Western blotting of p-Akt in brain tissue; conditions: TBI group vs control and TBI+JM-20 groups, p<0.05, FIG. 8
Experimental: as §1, §2, §3, §4

TBI-induced rats [4] = test: Open field test after weight-drop TBI; conditions: TBI group vs control and TBI+JM-20 group, p<0.05; FIG. 3
Experimental: as §1, §5
Animals were placed in the central area of an open field (56 cm diameter) that had its surface divided into equal parts. The duration of the test was 300 seconds. The number of times animals walked around the quadrants, the number of their exploratory responses (rearings) and their immobility time were analyzed.

Compound: CCOC(=O)C1=C(C)NC2=C(C=Nc3ccccc3N2)C1c1ccccc1[N+](=O)[O-] (centres unmarked) [JM-20, 3-ethoxycarbonyl-2-methyl-4-(2-nitrophenyl)-4,11-dihydro-1H-pyridol[2,3-b][1,5]benzodiazepine]
- GFAP expression (GFAP): showed no changes in any of the groups
- effect on TBI adverse effects (behavioral, morphological and biochemical changes) (TBI): effective in reducing and, in some cases, reversing TBI adverse effects
- first fall latency time on the rotarod test (TBI-induced rats [1]): animals who suffered a TBI showed a reduction of the first fall latency time on the rotarod test in contrast with the other groups
- time to complete the beam-walk test (TBI-induced rats [2]): rats in the TBI group took longer to complete the course than the control and JM-20 groups
- iba-1 expression in cerebral cortex (iba-1): increased in TBI groups, both in the cerebral cortex in comparison with all the groups
- brain water content (TBI-induced rats [3]): increased in the TBI group in contrast with the control and TBI +JM-20 groups
- p-Akt expression in hippocampus (p-Akt): decreased in TBI groups
- number of rearings during the open field test (TBI-induced rats [4]): a higher number of rearings was observed in comparison with the control and the TBI+JM-20 group
